As a reminder, the EC50 is the midpoint of the concentration-response curve.

In patent US12391680B2, “Compounds and compositions for the treatment of cystic fibrosis” (FONDAZIONE ISTITUTO ITALIANO DI TECNOLOGIA, priority 2019, dated 2025) one finds EC50 data, which are given here for 30 compounds.

The target of this assay is mutant CFTR (Homo sapiens, UniProt P13569). Briefly: Fluorescence assay for CFTR activity (halide-sensitive YFP, HS-YFP). Type of assay: cell-based. As to conditions: CFBE41o- and FRT cells with stable expression of mutant CFTR. Here is the method: Mutant CFTR activity was determined with the functional assay based on the halide-sensitive yellow fluorescent protein, HS—YFP (Galietta et al., FEBS Lett 499:220-224, 2001). CFBE41o- and FRT cells with stable expression of mutant CFTR and HS—YFP were plated on clear-bottom 96-well black microplates (Code 3603, Corning Life Sciences) at a density of 50,000 cells/well and kept at 37° C. in 5% CO2 for 24 hours.
For the corrector assay, cells were treated for further 24 hours with test compounds, vehicle (DMSO), or the positive control VX-809. After treatment, the culture medium was removed and cells in each well were stimulated for 30 min at 37° C. with 60 μL PBS (containing 137 mM NaCl, 2.7 mM KCl, 8.1 mM Na2HPO4, 1.5 mM KH2PO4, 1 mM CaCl2, and 0.5 mM MgCl2) plus forskolin (20 μM) and genistein (50 μM).
For determination of potentiator activity on F508del-CFTR, cells were incubated for 24 hours at 27° C. to allow trafficking of the mutant protein to plasma membrane. Cells were then stimulated with for 30 min with PBS containing forskolin (20 μM) plus the compound to be tested at the desired concentration. For determination of potentiator activity on G551D-CFTR or G1349D-CFTR, cells were directly stimulated with forskolin plus test compound without previous incubation at low temperature. At the time of assay, microplates carrying CFBE41o- or FRT cells were transferred to microplate readers (BMG Labtech) equipped with high-quality excitation (HQ500/20×: 500±10 nm) and emission (HQ535/30M: 535±15 nm) filters for YFP (Chroma Technology). The assay consisted of a continuous 14 s fluorescence reading with 2 s before and 12 s after injection of an iodide-containing solution (165 μL of a modified PBS containing I^− instead of Cl^−; final I^− concentration in the well: 100 mM). Data were normalized to the initial background-subtracted fluorescence. Enhanced CFTR activity, induced by correctors and/or potentiators, results in accelerated I^− influx that in turn causes faster HS—YFP quenching (Pedemonte et al., Mol Pharmacol 68:1736-1746, 2005; Pedemonte et al., J Clin Invest 115:2564-2571, […]). To determine fluorescence quenching rate associated with I^− influx, the final 10 s of data for each well were fitted with an exponential function to extrapolate initial slope (dF/dt).
EC50 obtained are illustrated in Table 1 wherein+: EC50>2 μM; ++: 1.0 μM <EC50<2 μM; +++: EC50<1 μM.

Chain of mutant CFTR (P13569 with tags, fused parts or gaps DEL508-508): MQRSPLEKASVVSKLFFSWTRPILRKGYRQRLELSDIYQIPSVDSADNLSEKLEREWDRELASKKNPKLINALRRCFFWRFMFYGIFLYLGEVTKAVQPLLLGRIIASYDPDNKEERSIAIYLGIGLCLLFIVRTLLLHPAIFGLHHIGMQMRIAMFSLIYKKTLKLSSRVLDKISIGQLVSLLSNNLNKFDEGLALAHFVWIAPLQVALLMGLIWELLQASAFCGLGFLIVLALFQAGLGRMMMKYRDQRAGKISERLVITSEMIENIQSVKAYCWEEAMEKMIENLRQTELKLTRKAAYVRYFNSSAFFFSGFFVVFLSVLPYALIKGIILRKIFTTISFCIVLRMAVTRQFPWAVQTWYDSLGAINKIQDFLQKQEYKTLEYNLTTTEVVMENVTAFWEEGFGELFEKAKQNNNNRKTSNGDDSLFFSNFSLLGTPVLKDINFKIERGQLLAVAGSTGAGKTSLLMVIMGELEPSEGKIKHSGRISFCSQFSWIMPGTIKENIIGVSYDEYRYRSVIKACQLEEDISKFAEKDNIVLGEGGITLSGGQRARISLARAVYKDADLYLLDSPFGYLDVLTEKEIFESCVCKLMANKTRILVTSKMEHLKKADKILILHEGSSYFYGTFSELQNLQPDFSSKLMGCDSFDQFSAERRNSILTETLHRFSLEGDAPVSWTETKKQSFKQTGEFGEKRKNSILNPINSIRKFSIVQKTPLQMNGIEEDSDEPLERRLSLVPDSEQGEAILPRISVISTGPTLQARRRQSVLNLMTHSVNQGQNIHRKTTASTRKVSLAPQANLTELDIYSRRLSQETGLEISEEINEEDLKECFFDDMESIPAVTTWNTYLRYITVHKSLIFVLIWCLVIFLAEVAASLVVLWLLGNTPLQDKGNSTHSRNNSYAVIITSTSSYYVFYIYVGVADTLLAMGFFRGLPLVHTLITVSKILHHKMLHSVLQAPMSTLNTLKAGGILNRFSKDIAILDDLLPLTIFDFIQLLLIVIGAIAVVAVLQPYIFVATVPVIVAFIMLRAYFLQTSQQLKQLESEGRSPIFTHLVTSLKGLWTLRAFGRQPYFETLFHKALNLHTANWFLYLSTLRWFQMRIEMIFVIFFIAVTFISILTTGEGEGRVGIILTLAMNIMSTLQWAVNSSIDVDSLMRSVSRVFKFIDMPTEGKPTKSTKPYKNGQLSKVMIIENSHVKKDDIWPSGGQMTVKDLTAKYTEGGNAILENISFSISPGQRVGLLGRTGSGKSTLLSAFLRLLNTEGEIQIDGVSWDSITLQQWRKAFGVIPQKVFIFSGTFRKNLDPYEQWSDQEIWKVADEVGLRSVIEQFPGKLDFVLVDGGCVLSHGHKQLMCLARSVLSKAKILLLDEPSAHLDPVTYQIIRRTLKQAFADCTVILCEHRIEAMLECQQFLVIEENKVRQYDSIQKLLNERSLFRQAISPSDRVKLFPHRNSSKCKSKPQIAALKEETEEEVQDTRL

Regarding `Cc1nc(S(=O)(=O)N2CCOC(c3c(C(N)=O)sc4ccccc34)C2)cn1C` (racemic) [compound 002, rac-3-[4-(1,2-dimethylimidazol-4-yl)sulfonylmorpholin-2-yl]benzothiophene-2-carboxamide], the EC50 is > 2000 nM.

In the case of `NC(=O)c1sc2ccccc2c1C1CN(S(=O)(=O)c2ccccc2)CCO1` (racemic) [compound 003, rac-3-[4-(benzenesulfonyl)morpholin-2-yl]benzothiophene-2-carboxamide], the EC50 was > 2000 nM.

As to `NC(=O)c1sc2ccccc2c1C1CN(S(=O)(=O)c2c[nH]cn2)CCO1` (racemic) [compound 004, rac-3-[4-(1H-imidazol-4-ylsulfonyl)morpholin-2-yl]benzothiophene-2-carboxamide], the EC50 is > 2000 nM.

Regarding `NC(=O)c1sc2ccccc2c1C1CN(S(=O)(=O)c2ccsc2)CCO1` (racemic) [compound 005, rac-3-[4-(3-thienylsulfonyl)morpholin-2-yl]benzothiophene-2-carboxamide], the EC50 was > 2000 nM.

In the case of `NC(=O)c1sc2ccccc2c1C1CN(S(=O)(=O)c2ccc(Oc3ccccc3)cc2)CCO1` (racemic) [compound 006, rac-3-[4-(4-phenoxyphenyl)sulfonylmorpholin-2-yl]benzothiophene-2-carboxamide], the EC50 was < 1000 nM.

For `COC(=O)c1cccc(S(=O)(=O)N2CCOC(c3c(C(N)=O)sc4ccccc34)C2)c1` (racemic) [compound 007, rac-methyl 3-[2-(2-carbamoylbenzothiophen-3-yl)morpholin-4-yl]sulfonylbenzoate], the concentration giving a half-maximal response (EC50) is > 2000 nM.

With `Cc1noc(C)c1S(=O)(=O)N1CCOC(c2c(C(N)=O)sc3ccccc23)C1` (racemic) [compound 008, rac-3-[4-(3,5-dimethylisoxazol-4-yl)sulfonylmorpholin-2-yl]benzothiophene-2-carboxamide], the EC50 is > 2000 nM.

For the compound `NC(=O)c1sc2ccccc2c1C1CN(S(=O)(=O)c2cccc(Br)c2)CCO1` (racemic) [compound 009, rac-3-[4-(3-bromophenyl)sulfonylmorpholin-2-yl]benzothiophene-2-carboxamide], the EC50 is > 2000 nM.

Take `COc1ccc(S(=O)(=O)N2CCOC(c3c(C(N)=O)sc4ccccc34)C2)cc1` (racemic) [compound 010, rac-3-[4-(4-methoxyphenyl)sulfonylmorpholin-2-yl]benzothiophene-2-carboxamide]: the EC50 lay in the range of 1000 to 2000 nM.

`Cc1cccc(S(=O)(=O)N2CCOC(c3c(C(N)=O)sc4ccccc34)C2)c1` (racemic) [compound 012, rac-3-[4-(m-tolylsulfonyl)morpholin-2-yl]benzothiophene-2-carboxamide]: the EC50 was 1000 to 2000 nM.

For the compound `NC(=O)c1sc2ccccc2c1C1CN(S(=O)(=O)c2ccc(N3CCCC3=O)cc2)CCO1` (racemic) [compound 015, rac-3-[4-[4-(2-oxopyrrolidin-1-yl)phenyl]sulfonylmorpholin-2-yl]benzothiophene-2-carboxamide], the EC50 was > 2000 nM.

Regarding `NC(=O)c1sc2ccccc2c1C1CN(S(=O)(=O)C2CCCCC2)CCO1` (racemic) [compound 016, rac-3-[4-cyclohexylsulfonylmorpholin-2-yl]benzothiophene-2-carboxamide], the EC50 is > 2000 nM.

On to `NC(=O)c1sc2ccccc2c1C1CN(S(=O)(=O)c2ccc3c(c2)OCO3)CCO1` (racemic) [compound 017, rac-3-[4-(1,3-benzodioxol-5-ylsulfonyl)morpholin-2-yl]benzothiophene-2-carboxamide], for which the EC50 was 1000 to 2000 nM.

Consider `COc1ccc(Oc2ccc(S(=O)(=O)N3CCOC(c4c(C(N)=O)sc5ccccc45)C3)cc2)cc1` (racemic) [compound 019, rac-3-[4-[4-(4-methoxyphenoxy)phenyl]sulfonylmorpholin-2-yl]benzothiophene-2-carboxamide], for which the EC50 is > 2000 nM.

On to `NC(=O)c1sc2ccccc2c1C1CN(S(=O)(=O)c2cccc(F)c2)CCO1` (racemic) [compound 020, rac-3-[4-(3-fluorophenyl)sulfonylmorpholin-2-yl]benzothiophene-2-carboxamide], for which the EC50 lay in the range of 1000 to 2000 nM.

As to `NC(=O)c1sc2ccccc2c1C1CN(S(=O)(=O)c2ccc(F)c(F)c2)CCO1` (racemic) [compound 021, rac-3-[4-(3,4-difluorophenyl)sulfonylmorpholin-2-yl]benzothiophene-2-carboxamide], the EC50 was > 2000 nM.

Regarding `NC(=O)c1sc2ccccc2c1C1CN(S(=O)(=O)c2ccc(F)cc2)CCO1` (racemic) [compound 022, rac-3-[4-(4-fluorophenyl)sulfonylmorpholin-2-yl]benzothiophene-2-carboxamide], the EC50 was > 2000 nM.

For the compound `COc1ccc(S(=O)(=O)N2CCOC(c3c(C(N)=O)sc4ccccc34)C2)cc1C` (racemic) [compound 023, rac-3-[4-(4-methoxy-3-methyl-phenyl)sulfonylmorpholin-2-yl]benzothiophene-2-carboxamide], the EC50 is > 2000 nM.

Take `NC(=O)c1sc2ccccc2c1C1CN(S(=O)(=O)c2ccc(Oc3ccncc3)cc2)CCO1` (racemic) [compound 024, rac-3-[4-[4-(4-pyridyloxy)phenyl]sulfonylmorpholin-2-yl]benzothiophene-2-carboxamide]: the EC50 is > 2000 nM.

Take `Cc1cc(S(=O)(=O)N2CCOC(c3c(C(=O)N(C)C)sc4ccccc34)C2)ccc1F` (racemic) [compound 025, rac-3-[4-(4-fluoro-3-methyl-phenyl)sulfonylmorpholin-2-yl]-N,N-dimethyl-benzothiophene-2-carboxamide]: the EC50 is > 2000 nM.

For `Cc1ccc(S(=O)(=O)N2CCOC(c3c(C(N)=O)sc4ccccc34)C2)cc1F` (racemic) [compound 026, rac-3-[4-(3-fluoro-4-methyl-phenyl)sulfonylmorpholin-2-yl]benzothiophene-2-carboxamide], the concentration for a half-maximal effect (EC50) is < 1000 nM.

Take `Cc1ccc(F)cc1S(=O)(=O)N1CCOC(c2c(C(N)=O)sc3ccccc23)C1` (racemic) [compound 027, rac-3-[4-(5-fluoro-2-methyl-phenyl)sulfonylmorpholin-2-yl]benzothiophene-2-carboxamide]: the EC50 was > 2000 nM.

For the compound `CNC(=O)c1sc2ccccc2c1C1CN(S(=O)(=O)c2ccc(F)c(C)c2)CCO1` (racemic) [compound 028, rac-3-[4-(4-fluoro-3-methyl-phenyl)sulfonylmorpholin-2-yl]-N-methyl-benzothiophene-2-carboxamide], the EC50 is > 2000 nM.

For `Cc1cc(S(=O)(=O)N2CCOC(c3c(C(=O)NCCO)sc4ccccc34)C2)ccc1F` (racemic) [compound 029, rac-3-[4-(4-fluoro-3-methyl-phenyl)sulfonylmorpholin-2-yl]-N-(2-hydroxyethyl)benzothiophene-2-carboxamide], the EC50 was > 2000 nM.

With `CCNC(=O)c1sc2ccccc2c1C1CN(S(=O)(=O)c2ccc(F)c(C)c2)CCO1` (racemic) [compound 030, rac-N-ethyl-3-[4-(4-fluoro-3-methyl-phenyl)sulfonylmorpholin-2-yl]benzothiophene-2-carboxamide], the EC50 is > 2000 nM.

Take `Cc1cc(S(=O)(=O)N2CCOC(c3c(C(=O)NC(C)C)sc4ccccc34)C2)ccc1F` (racemic) [compound 031, rac-3-[4-(4-fluoro-3-methyl-phenyl)sulfonylmorpholin-2-yl]-N-isopropyl-benzothiophene-2-carboxamide]: the EC50 is > 2000 nM.

For `Cc1cc(C)c(S(=O)(=O)N2CCOC(c3c(C(N)=O)sc4ccccc34)C2)c(C)c1` (racemic) [compound 032, rac-3-[4-(2,4,6-trimethylphenyl)sulfonylmorpholin-2-yl]benzothiophene-2-carboxamide], the EC50 is > 2000 nM.

Take `Cc1ccc(S(=O)(=O)N2CCOC(c3c(C(N)=O)sc4ccccc34)C2)cc1` (racemic) [compound 033, rac-3-[4-(p-tolylsulfonyl)morpholin-2-yl]benzothiophene-2-carboxamide]: the concentration giving a half-maximal response (EC50) is < 1000 nM.

On to `NC(=O)c1sc2ccccc2c1C1CN(S(=O)(=O)c2cccc(C(F)(F)F)c2)CCO1` (racemic) [compound 035, rac-3-[4-[3-(trifluoromethyl)phenyl]sulfonylmorpholin-2-yl]benzothiophene-2-carboxamide], for which the EC50 is < 1000 nM.

For the compound `CC(C)(C)c1ccc(S(=O)(=O)N2CCOC(c3c(C(N)=O)sc4ccccc34)C2)cc1` (racemic) [compound 036, rac-3-[4-(4-tert-butylphenyl)sulfonylmorpholin-2-yl]benzothiophene-2-carboxamide], the EC50 was < 1000 nM.
